Assay results as given in publication PMC4563141, “Reverse Engineering of Vaccine Antigens Using High Throughput Sequencing-enhanced mRNA Display” (EBioMedicine, 2015).
Peptide text beside a SMILES is read from it.

How the values were obtained:
mAb41 Fab = test: Affinity measurements by Octet (binding kinetics of mAb41 Fab to biotinylated peptides); set-up: species or system mice; conditions: Octet RED, 1:1 model fit
Procedure: Binding kinetics of mAb41 Fab to selected peptides were measured using a Fortebio Octet Red 96 instrument (Menlo Park, CA). All assays were performed in 1 × kinetic buffer (Fortebio). Biotinylated peptides were loaded onto streptavidin biosensors (Fortebio) for 100 s and quenched with biocytin. A two-fold dilution series of antibody Fab (prepared using a mouse IgG1 kit, Pierce) was used as analyte. Association was performed for 300 s and dissociation for 900 s. Binding constants were obtained by fitting sensorgrams with a 1:1 model using ForteBio Data Analysis Software.

mAb41 = test: Competitive ELISA for binding of mAb41 to immobilized peptide B; set-up: species or system mice; conditions: 1 μg biotinylated pB immobilized, 12 ng mAb41, competitor peptide 0 to 0.8 μg
Procedure: Streptavidin coated 96-well ELISA plates were coated with 1 μg/well biotinylated peptide B as previously described ([Major et al., 1999]). Equal amounts of mAb (12 ng in 100 μl PBS containing 5% milk) were added to each well with increasing amounts of competitor peptide (from 0 to 0.8 μg). After 1 hr incubation at room temperature and washing, secondary antibody was added. The substrate reaction and absorbance reading were performed as described above.

CSCC[C@H](NC(=O)[C@@H](N)CCSC)C(=O)N[C@@H](CCC(=O)O)C(=O)N[C@@H](CS)C(=O)N[C@@H](CCC(=O)O)C(=O)N[C@@H](CCCCN)C(=O)NCC(=O)N[C@@H](CCCCN)C(=O)N[C@@H](Cc1ccc(O)cc1)C(=O)N[C@H](C(=O)N[C@@H](CCC(N)=O)C(=O)NCC(=O)N[C@@H](Cc1c[nH]c2ccccc12)C(=O)N[C@@H](CC(C)C)C(=O)N[C@@H](CS)C(=O)N[C@@H](Cc1c[nH]cn1)C(=O)N[C@@H](CC(C)C)C(=O)N[C@@H](Cc1ccccc1)C(=O)N[C@@H](Cc1c[nH]c2ccccc12)C(=O)N[C@@H](CCC(=O)O)C(=O)N[C@@H](CC(=O)O)C(=O)N[C@@H](CS)C(=O)N[C@@H](CCC(N)=O)C(=O)N[C@@H](CC(=O)O)C(=O)N[C@@H](CCCNC(=N)N)C(=O)NCC(=O)N[C@@H](Cc1c[nH]c2ccccc12)C(=O)N[C@@H](CC(C)C)C(=O)N[C@@H](CCC(=O)O)C(=O)N[C@@H](CCC(N)=O)C(=O)N[C@@H](CC(C)C)C(=O)N[C@@H](CCCNC(=N)N)C(=O)N[C@@H](CC(N)=O)C(=O)N[C@@H](CO)C(=O)N[C@@H](CS)C(=O)N[C@@H](C)C(=O)O)C(C)C [p41_1] (H-MMECEKGKYVQGWLCHLFWEDCQDRGWLEQLRNSCA-OH; N-terminus and C-terminus assumed)
kon (mAb41 Fab; association 300 s): 14400 M⁻¹ s⁻¹
Kd (mAb41 Fab; biotinylated peptide on streptavidin biosensor, mAb41 Fab 125 nM to 7.8 nM 2-fold series): 16.7 nM
kdis (mAb41 Fab; dissociation 900 s): 0.000241 s⁻¹
competition with wild type pB for binding to mAb41 (mAb41): inhibited binding of mAb41 to immobilized pB
